Experiments:
[1] = tested on: inducible Nitrite Oxide Synthase (iNOS); assay: iNOS assay in LPS-stimulated murine macrophages (J774A.1); format: cell-based; conditions: standard reference agent
Method: An iNOS Assay was performed as follows. Murine Macrophages (1.5*10^5 cells/well) were seeded for 24 hours. After preincubating the samples with the cells at room temperature for 10 minutes, the reaction was started with 1 μg/ml LPS (E.coli 055:B5). The incubation time was 24 hours at 37° C. and 5% CO 2. The controls [t(0)] were performed without LPS stimulation. The quantification of Nitric Oxide was performed with a Nitric Oxide Colorimetric Assay Kit from BioVision (Art.Nr: #K262-200). The optical densities were measured at λ=570 nm. […] Sample points were measured in triplicate. […] The following tables and charts and FIG. 9 summarize the assay and the results.

[2] = target: T1, Human Leukocyte Elastase (HLE) (Homo sapiens, UniProt P08246); assay: Leukocyte Elastase Assay (p-Nitroaniline, photometric); format: biochemical; conditions: standard reference agent
T1 sequence (P08246 30-267): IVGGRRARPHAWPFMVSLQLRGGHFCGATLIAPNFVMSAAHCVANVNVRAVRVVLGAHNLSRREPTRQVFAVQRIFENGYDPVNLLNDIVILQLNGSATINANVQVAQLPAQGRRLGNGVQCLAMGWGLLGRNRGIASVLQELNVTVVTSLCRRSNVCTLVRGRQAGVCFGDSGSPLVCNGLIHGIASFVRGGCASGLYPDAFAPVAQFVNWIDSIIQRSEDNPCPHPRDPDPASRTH
Method: A Leukocyte Elastase Assay was performed as follows. After preincubating the samples with the enzyme HLE (20 nM) at room temperature for 10 minutes, the reaction was started with an enzyme substrate (5 mM). The reaction time was 15 min at room temperature. The controls [t(0)] were performed without enzyme. […] The quantification of p-Nitroaniline was performed by direct photometrical measurement.
All sample points were measured in duplicate. […] The following tables, charts, and FIGS. 8A and 8B summarize the assay and the results.

| SMILES | IC50 [1] | IC50 [2] |
| --- | --- | --- |
| COC(=O)[C@@H](N)CCCNC(=N)N[N+](=O)[O-] [L-NAME] | 600 µM | – |
| C[C@H]1[C@H](C)CC[C@]2(C(=O)O)CC[C@]3(C)C(=CC[C@@H]4[C@@]5(C)CC[C@H](O)C(C)(C)[C@@H]5CC[C@]43C)[C@H]12 [Ursolic acid] | – | 30 µM |
